The subject of test [1] is HER2-overexpressing human NSCLC cell line Calu-3. The test can be described thus: Calu-3 subcutaneous xenograft, zongertinib with trastuzumab and/or pertuzumab. The note with it: day 42, zongertinib 20 mg/kg qdx42 p.o., trastuzumab 20 mg/kg q7dx6 i.p., pertuzumab 20 mg/kg q7dx6 i.p., alone or combined. The test is classed as in vivo, CB-17/Icr-Prkdc^scid mice. As to the method: The study is performed in human NSCLC cell line Calu-3 grown as subcutaneous xenografts in CB-17/Icr-Prkdc^scid mice. Day 1 was the first day, day 42 the last day of treatment and final day of analysis.
Calu-3 is a HER2-overexpressing human NSCLC cell line that can be obtained from ATCC (lot 614492062). Cells are cultured in T75, T175 and 5-Layer tissue culture flasks at 37° C. and 5% CO2. The medium used is EMEM (Lonza BE12-662F) supplemented with 10% FCS (Cytiva HyClone Characterized FBS, SH30084.03n), 2 mM Glutamax (Gibco 35050-038), 0.5 mM sodium pyruvate (Sigma S8636). Cultures are split once weekly with a ratio of 1:1.5-1:2.
To establish subcutaneous tumors, Calu-3 cells are harvested by centrifugation, washed and resuspended in PBS+5% FCS at 7×10^7 cells/ml. 50 μl cell suspension containing 3.5×10^6 cells is injected subcutaneously into the right flank of mice (1 site per mouse).
Mice in the control group are treated with vehicle, i.e.: • (i) 0.5% Natrosol, administered once daily for the duration of the treatment intragastrally by gavage needle with a volume of 10 ml/kg body weight; and • (ii) saline (0.9%), administered once every week intraperitoneally with a volume of 10 ml/kg.
Tumor volumes and side effects are monitored as described in Example 1 (see paragraph 1.1.6).
The statistical evaluation of the tumor volume and the body weight is conducted on day 21 (last day of the study). Apart from this, statistical analysis was performed as described in Example 1 (see paragraph 1.1.7), with no evaluation of tumor growth after stop of treatment.

The test system of test [2] is parental NCI-N87 cells. As to the kind of experiment: Proliferation assay (CellTiter Glo), parental NCI-N87 cells. The class given is cell-based, human. To be noted: 5 days of incubation, in vitro. As to the method: Per well, 1000 cells are seeded in 40 μL medium in white, sterile 384-well culture plates (TC-treated; PerkinElmer #6007680) and incubated overnight in a humidified incubator at 37° C. and 5% CO2. 0.1% DMSO-control or serial compound dilution in triplicates are added. […] After 5 days of incubation with test compounds, the cells plates are measured upon addition of CellTiter Glo Luminescent Cell Viability Reagent (Promega, #G9243) to assess cell viability. The plates are placed on a shaker for five minutes and additionally incubated for 10 minutes at room temperature to induce cell lysis and to stabilize the luminescent signal. The luminescent signal of each well is measured in an EnSpire Multilabel Plate Reader 658 (PerkinElmer). The dose response curves are fit and visualized using Boehringer Ingelheim's proprietary software MegaLab and PRISM (GraphPad Inc.).
(In general: In ATP-based viability assays light output follows the ATP content of the culture.)

For test [3], the system named is HER2-overexpressing human esophagus cancer cell line OE19. The class given is in vivo. The note with it: day 20, zongertinib 20 mg/kg qdx20 p.o., T-DXd 3 mg/kg q21dx1 i.v., alone or combined; for Regressions >30%: tumors regressed/total. As to the method: The study is performed in human esophagus cancer cell line OE19 grown as subcutaneous xenografts in NMRI-Foxn1^nu mice. Day 1 was the first day, day 20 the final day of analysis.
OE19 is a HER2-overexpressing human esophagus cancer cell line that can be obtained from the European Collection of Authenticated Cell Cultures (ACACC Cat. No. 960071721). Cells are cultured in T75, T175 and 5-Layer tissue culture flasks at 37° C. and 5% CO2. The medium used is RPMI 1640 (ATCC #30-2001) supplemented with 10% FCS (Thermo Scientific #SH 30084.03). Cultures are split twice weekly with a ratio of 1:3-1:4.
To establish subcutaneous tumors, OE19 cells are harvested by centrifugation, washed and resuspended in PBS+5% FCS at 5×10^7 cells/ml. 100 μl cell suspension containing 5×10^6 cells is injected subcutaneously into the right flank of the mice (1 site per mouse).
Tumor volumes and side effects are monitored as described in Example 1 (see paragraph 1.1.6), except that control animals are sacrificed when the median tumor volume of the group reaches a size of approximately 1190 mm^3.
The statistical evaluation of the tumor volume and the body weight is conducted on day 20.

SMILES strings stand for the structures. Read-outs that look alike come from different tables or passages of the source.

For `C=CC(=O)NC1CCN(c2ncc3ncnc(Nc4ccc(Oc5ccc6c(c5)ncn6C)c(C)c4)c3n2)CC1` [Zongertinib, N-{1-[8-({3-methyl-4-[(1-methyl-1H-1,3-benzodiazol-5-yl)oxy]phenyl}amino)-[1,3]diazino [5,4-d]pyrimidin-2-yl]piperidin-4-yl}prop-2-enamide], the “Regressions >30%” value was 0/10 in test [1] (tumors regressed/total (partial response)), 0/8 in test [3] and “no tumors” in test [3] (listed as zongertinib). Besides, the results for the TGI in test [1] and in test [3] were 64% and 73%, respectively. Besides, in test [2], the “sensitivity (dose response, cell viability)” value is given as “sensitive”.

For the origin of these results see patent US20250228858A1, “ANTI-CANCER COMBINATION THERAPY” (Boehringer Ingelheim International GmbH, priority 2023, published 2025).
